Assay results: patent US20130209985A1, “SAMPLE COLLECTION DEVICES WITH BLOOD STABILIZING AGENTS” (priority 2012, published 2013)

Experiments:
[1] = tested on: CD62P (P-selectin) surface expression on platelets; test: Whole blood flow cytometry of platelet CD62P surface expression (α-granule release); assay type: cell-based; settings: for median PE fluorescence (CD62P) / frequency of CD62P expression (CD62P+ platelets): Example 1; for CD62P expression: Example 2, iloprost 0.5 μM where added, mean of 3 subjects; for MFI Over Time (CD62P, all platelet events): Example 3, 10 subjects
Source text: (§1) Platelet activation can result in a robust and rapid release of α-granules, dense granules, and lysosomes, the contents of which serve to promote a variety of autocrine and paracrine signal transduction events. CD62P (P-selectin) is an adhesion molecule that is transiently expressed on the platelet plasma membrane following α-granule release and can mediate platelet-leukocyte aggregates via ligation with leukocyte expressed P-selectin glycoprotein ligand 1 (PSGL-1/CD162). Dense granule and lysosome release can be measured, although not distinguished, with CD63 surface expression.
(§2) The effect of EDTA on platelet activation, as judged by CD62P and CD63 surface expression, was evaluated in the presence or absence of the platelet stabilization agent (iloprost). Whole blood was collected into tubes containing EDTA or EDTA with iloprost at 0.5, 5 and 50 μM final concentration. Antibody cocktails containing previously determined amounts of αCD61 PerCP, αCD62P PE, αCD63 Alexa Fluor® 647, and/or appropriate isotype controls were added to a conical bottom micro titer plate. A modified HEPES-Tyrode's buffer was used to equilibrate the final volume to 100 μL for each staining reaction. Platelet surface staining was performed by adding 5 μL of whole blood to the appropriate staining mix and incubating at RT under dark conditions for 15 minutes. Afterwards, the entire reaction was transferred to 5 mL round bottom polystyrene snap cap tubes containing 1 mL of HEPES-Tyrode's buffer for a final dilution of each sample. Samples were briefly vortexed and data was acquired using a BD FACScalibur instrument. FSC and SSC settings were established on the log scale in order to discern platelet size and morphology from RBC and WBC populations. In order to further discriminate platelet-specific events, a PerCP alone control was used to establish a CD61^+ gate. Since CD63 is not a platelet specific marker it was necessary to further gate on the single platelet morphology population to avoid a CD63 signature from the platelet-bound leukocytes. The PerCP alone control was also used to set fluorescence detector voltages for CD62P^−/CD63^− populations. Once voltage and compensation settings were finalized, 10,000 CD61^+/single platelet events were acquired for each test sample.
The effect of iloprost on platelet activation was studied in the presence of strong platelet-activating agents, ADP and thrombin-receptor activating peptide (TRAP). Platelet stimulations were performed by adding 300 μL blood to micro-centrifuge tubes containing 10 μL of saline (0.85%), ADP, or TRAP-6 and incubating for approximately 2 min at RT. Final concentrations of ADP and TRAP-6 were 6.5 μM and 32 μM, respectively. Afterwards, whole blood flow cytometry was performed as described above. Blood collection and flow cytometry was performed as described in example 1.
The effect of iloprost on platelet degranulation was measured in EDTA and EDTA/protease inhibitor background. Whole blood was collected into tubes containing EDTA, EDTA with iloprost, a protease inhibitor cocktail (“PIC”, which included one protease inhibitor from each class of inhibitor described in Table II in U.S. Pat. No. 7,309,468), and the cocktail with iloprost. Whole blood flow cytometry to measure CD62P expression was performed as described in example 1.

[2] = tested on: CD63 surface expression on platelets; test: Whole blood flow cytometry of platelet CD63 surface expression (dense granule/lysosome release); assay type: cell-based; settings: Example 2; for CD63 surface expression: EDTA without iloprost
Source text: as §1
as §2, with “Since CD63 is not a platelet specific marker it was necessary to further gate on the single platelet morphology population to avoid a CD63 signature from the platelet-bound leukocytes.” left out, “Once voltage and compensation settings were finalized, 10,000 CD61^+/single platelet events were acquired for each test sample.” left out

[3] = tested on: VEGF; test: Plasma biomarker release, ELISA; assay type: cell-based; settings: 0, 2, 8 and 24 hr sample dwell; relative to EDTA alone
Description: (§3) Blood was collected as described in example 1. Plasma was prepared at indicated timepoints (0, 2, 8 and 24 hr sample dwell) by centrifuging the tubes at 3000 rcf for 10 min. and was used to measure levels of PDGFa/a, TGFβ1, VEGF, IL-8 (CXCL8), and RANTES (CCL5) using commercially available ELISA kits, per manufacturer's instructions.

[4] = tested on: PDGFa/a; test: Plasma biomarker release, ELISA; assay type: cell-based; settings: 0, 2, 8 and 24 hr sample dwell; relative to EDTA alone
Description: as §3

[5] = tested on: RANTES (CCL5); test: Plasma biomarker release, ELISA; assay type: cell-based; settings: 0, 2, 8 and 24 hr sample dwell; relative to EDTA alone
Description: as §3

[6] = tested on: TGFβ1; test: Plasma biomarker release, ELISA; assay type: cell-based; settings: 0, 2, 8 and 24 hr sample dwell; relative to EDTA alone
Description: as §3

[7] = tested on: IL-8 (CXCL8); test: Plasma biomarker release, ELISA; assay type: cell-based; settings: EDTA with iloprost versus EDTA alone
Description: as §3

[8] = tested on: platelets (platelet clumping); test: Complete blood count and hematology parameters, Sysmex XE-2100; assay type: cell-based; settings: compared to EDTA alone
[9] = tested on: platelet-leukocyte aggregates; test: Leukocyte-platelet aggregates by flow cytometry (αCD61/αCD45); assay type: cell-based; settings: t=0, 4, 24 and 144 hr of sample dwell; versus EDTA alone; 6 subjects
Source text: Blood was collected as described in example 1. Antibody cocktails containing previously determined amounts of αCD61 (platelet marker), αCD45 (leukocyte marker) and/or appropriate isotype controls were used to detect the platelet-leukocyte aggregates at t=0, 4, 24 and 144 hr of sample dwell with the use of flow cytometry as described in example 1. […] Data representative of 6 subjects.

[10] = target: acetylcholinesterase (AChE) (Homo sapiens, UniProt P22303); settings: read-out: Ki for AChE; cited from earlier work
[11] = whole blood in EDTA, iloprost 0.5 μM
[12] = whole blood in EDTA, iloprost 5 μM
[13] = whole blood in EDTA, iloprost 50 μM

acetylcholinesterase (AChE), sequence (P22303 32-614, species assumed): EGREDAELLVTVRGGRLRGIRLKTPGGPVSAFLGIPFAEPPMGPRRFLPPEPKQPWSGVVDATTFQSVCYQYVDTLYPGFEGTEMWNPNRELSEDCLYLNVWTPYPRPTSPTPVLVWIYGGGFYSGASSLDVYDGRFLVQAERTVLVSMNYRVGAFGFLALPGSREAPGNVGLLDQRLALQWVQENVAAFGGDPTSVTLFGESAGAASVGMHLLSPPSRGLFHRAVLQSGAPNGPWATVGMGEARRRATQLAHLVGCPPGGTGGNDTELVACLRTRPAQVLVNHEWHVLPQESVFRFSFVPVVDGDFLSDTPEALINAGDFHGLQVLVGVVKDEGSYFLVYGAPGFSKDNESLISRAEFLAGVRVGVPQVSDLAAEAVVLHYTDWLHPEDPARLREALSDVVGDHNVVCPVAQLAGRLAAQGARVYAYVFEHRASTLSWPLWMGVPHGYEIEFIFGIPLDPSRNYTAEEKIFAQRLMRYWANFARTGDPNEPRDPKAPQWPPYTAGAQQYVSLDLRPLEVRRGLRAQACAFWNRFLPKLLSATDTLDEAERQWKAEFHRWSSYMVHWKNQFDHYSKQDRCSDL

O=C(O)CN(CCN(CC(=O)O)CC(=O)O)CC(=O)O [EDTA, Ethylenediamine tetraacetic acid]
median PE fluorescence (CD62P) ([1]; whole blood in EDTA alone): 44.7 | frequency of CD62P expression (CD62P+ platelets) ([1]; whole blood in EDTA alone, no iloprost): 44.7% | CD62P expression ([1]; ADP 6.5 μM activated): 85.1% | CD62P expression ([1]; TRAP-6 32 μM activated): 99.4% | CD62P expression ([1]; resting samples (saline)): 44.6% | MFI Over Time (CD62P, all platelet events) ([1]; 0 hrs sample dwell): 20.21 | MFI Over Time (CD62P, all platelet events) ([1]; 2 hrs sample dwell): 42.66 | MFI Over Time (CD62P, all platelet events) ([1]; 8 hrs sample dwell): 33.14 | MFI Over Time (CD62P, all platelet events) ([1]; 24 hrs sample dwell): 63.02 | MFI (CD62P, all platelet events) ([1]; Example 10, 5 subjects): 171.56 | CD63 surface expression ([2]; ADP 6.5 μM): 7.67% | CD63 expression ([2]; TRAP-6 32 μM stimulated, iloprost 0.5, 5, 50 μM where added): 69.3% | CD63 surface expression ([2]; unstimulated): 2.13%

CC#CCC(C)[C@H](O)/C=C/[C@@H]1[C@H]2C/C(=C/CCCC(=O)O)C[C@H]2C[C@H]1O (some centres unmarked) [iloprost]
expression of VEGF in plasma [3]: reduced | expression of PDGFa/a in plasma [4]: reduced | expression of RANTES in plasma [5]: reduced | expression of TGFβ1 in plasma [6]: reduced | expression of IL-8 in plasma [7]: similar | frequency of CD62P expression (CD62P+ platelets) [1, 11]: 15.0% | median PE fluorescence (CD62P) [1, 11]: 7.31 | frequency of CD62P expression (CD62P+ platelets) [1, 12]: 14.1% | median PE fluorescence (CD62P) [1, 12]: 7.12 | frequency of CD62P expression (CD62P+ platelets) [1, 13]: 13.9% | median PE fluorescence (CD62P) [1, 13]: 7.06 | CD62P expression ([1]; ADP 6.5 μM activated): 17.3% | CD62P expression ([1]; TRAP-6 32 μM activated): 33.4% | CD62P expression ([1]; resting samples (saline)): 15.0% | percentage of CD62+ events ([1]; Example 10, both EDTA and PIC backgrounds, 5 subjects): reduced | mean platelet volume (MPV) ([8]; p<0.001, Paired Test): lower | decrease in platelet clumps ([8]; study of 300 normal healthy subjects): 40% | percentage of leukocyte-bound platelets [9]: reduced

CCC1=CC2Cc3nc4cc(Cl)ccc4c(N)c3C(C1)C2 [Huprine X, (1S)-7-chloro-15-ethyl-10-azatetracyclo[11.3.1.0̂{2,11}.0̂{4,9}]heptadeca-2(11),3,5,7,9,14-hexane-3-amine]
Ki [10]: 0.026 nM
